Test results published in patent publication US20260001928A1 (CORTERIA PHARMACEUTICALS, priority 2022, published 2026).
pEC50: −log10 of the molar value. *1 amine or outer side, *2 acyl side, *3 side chain or, on linkers, in order; H or OH if unused. Where a SMILES comes first, the peptide text is derived from it. Side-chain parts run from the residue outwards. [ ]: non-standard residue; d: D form. The star is where a group is joined. C20 diacid = O=C(O)CCCCCCCCCCCCCCCCCCC(=O)*; C18 diacid = O=C(O)CCCCCCCCCCCCCCCCC(=O)*; γGlu = O=C(O)[C@H](CCC(=O)[*:2])N[*:1]; NMeI = CC[C@H](C)[C@H](NC)C(=O)O; αMeL = CC(C)C[C@](C)(N)C(=O)O; AEEA = NCCOCCOCC(=O)O; Aib = CC(C)(N)C(=O)O

How the values were obtained:
[1] = In vitro plasma stability, rat plasma; type: in vitro ADME; design: remaining at 2 h: dose or concentration left out as unconfirmed; settings: Rat PLM, 37° C.; for remaining at 2 h: male, Sprague Dawley, plasma
Procedure: In vitro plasma metabolic stability was studied in male Sprague Dawley rats and human. Test compounds were incubated at 3 M for 2 hours at 37° C. At each time point (0, 0.25, 1 and 2 h), samples were prepared for analysis by means of a single step protein precipitation technique by adding 150 μL of ethanol, 0.1% formic acid to 50 μL aliquots of plasma. Samples were mixed by vortex for homogeneity and then subjected to centrifugation at 14000 rpm for 15 min. The supernatant (100 μL) was collected, diluted with 100 μL of water, 0.1% formic acid and analyzed by LC-HRMS (TripleTOF 6600+, AB Sciex). For each test compound, the area ratios at each time point were compared to the 0 h area ratio and converted to a percentage remaining.

[2] = In vitro plasma stability, minipig plasma; type: in vitro ADME; design: remaining at 2 h: dose or concentration left out as unconfirmed; settings: Minipig PLM, 37° C.
[3] = Chemical stability in buffer (pH 7.4 / pH 4.5), % purity loss; type: physicochemical; settings: 40° C. vs 5° C., 14 or 28 days; for Buffer stability pH 4.5 % purity loss: 100 mM acetate buffer pH 4.5; for Buffer stability pH 7.4 % purity loss: 100 mM phosphate buffer pH 7.4
Method in brief: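 Compounds dissolved at 10 mg/mL target in 100 mM phosphate (pH 7.4) or 100 mM acetate (pH 4.5) buffer for 1 h at room temperature, then centrifuged. Diluted supernatant stored at 5 °C or 40 °C for 14 or 28 days; % purity loss by LC-UV.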

[4] = Pharmacokinetics in male Sprague Dawley rats after subcutaneous administration; type: in vivo; settings: plasma, rat, SC, 0.1 mg/kg
[5] = In vitro subcutaneous tissue supernatant (SCts) stability and metabolite identification, rat; type: in vitro ADME; design: remaining at 2 h: dose or concentration left out as unconfirmed; settings: male, Sprague Dawley; rat subcutaneous tissue supernatant (SCts), 37° C, 2 h
[6] = in vitro; design: dose or concentration left out as unconfirmed; settings: dog, plasma
[7] = molecular target: T1, rat CRF2 a (Rattus norvegicus, UniProt P47866); test: Activity at rat CRF2 a, cAMP assay in A7R5 rat aortic smooth muscle cells; type: cell-based; settings: 0% HSA, 100% = Sauvagine at 100 nM
T1 construct: host or cells: A7R5 rat aortic smooth muscle cells
T1 sequence (P47866 27-431 isoform P47866-2 limits assumed): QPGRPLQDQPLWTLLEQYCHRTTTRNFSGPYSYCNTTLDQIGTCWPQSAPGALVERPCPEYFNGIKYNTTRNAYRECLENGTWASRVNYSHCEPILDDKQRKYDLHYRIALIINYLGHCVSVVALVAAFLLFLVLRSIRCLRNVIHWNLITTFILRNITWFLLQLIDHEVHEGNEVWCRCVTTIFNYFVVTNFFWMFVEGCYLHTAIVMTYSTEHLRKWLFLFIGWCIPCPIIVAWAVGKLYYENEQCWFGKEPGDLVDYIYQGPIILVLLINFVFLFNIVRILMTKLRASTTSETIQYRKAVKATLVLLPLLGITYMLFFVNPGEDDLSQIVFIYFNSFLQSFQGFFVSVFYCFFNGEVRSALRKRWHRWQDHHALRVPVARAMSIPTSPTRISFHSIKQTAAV
Method in brief: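 cAMP response measured in frozen-stock A7R5 rat aortic smooth muscle cells, 5000 cells/well final. 100% activation defined by Sauvagine at 100 nM in control wells.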

% remaining at 2 hours [1] [%] | % remaining at 2 hours [2] [%] | Buffer stability pH 4.5 % purity loss [3] | Buffer stability pH 7.4 % purity loss [3] | AUC(0-t) [4] [ng·h/mL] | Cmax [4] [ng/mL] | remaining at 2 h [1] [%] | remaining at 2 h ([2]; pig, plasma) [%] | remaining at 2 h [5] [%] | remaining at 2 h [6] [%] | pEC50 [7] | Structure (SMILES)
128 | 126 | 0/0 ^ % | 0/0 ^ % | 3540 | 225 |  |  |  |  |  | CC[C@H](C)[C@H](NC)C(=O)N[C@H](C(=O)N[C@@H](CC(C)C)C(=O)N[C@@H](CO)C(=O)N[C@@H](CC(C)C)C(=O)N[C@@H](CC(=O)O)C(=O)N[C@@H](C(=O)N1CCC[C@H]1C(=O)N[C@H](C(=O)N[C@@H](CCCCN)C(=O)N[C@@H](CC(C)C)C(=O)N[C@@H](CCCCNC(=O)COCCOCCNC(=O)COCCOCCNC(=O)CC[C@H](NC(=O)CCCCCCCCCCCCCCCCC(=O)O)C(=O)O)C(=O)N[C@@H](CCCCN)C(=O)N[C@H](C(=O)N[C@@H](CC(C)C)C(=O)N[C@@H](CC(C)C)C(=O)N[C@@H](CCC(=O)O)C(=O)N[C@@H](CCC(N)=O)C(=O)N[C@@H](CCC(=O)O)C(=O)N[C@@H](CCCCN)C(=O)N[C@@H](CCC(N)=O)C(=O)N[C@@H](CCCCN)C(=O)N[C@@H](CCCCN)C(=O)N[C@@H](CCC(N)=O)C(=O)N[C@@H](CCCNC(=N)N)C(=O)N[C@@H](CCC(=O)O)C(=O)N[C@@H](CCC(N)=O)C(=O)N[C@@H](C)C(=O)N[C@@H](CCC(=O)O)C(=O)N[C@H](C(=O)N[C@@H](CC(N)=O)C(=O)NC(C)(C)C(=O)N[C@@H](CCC(N)=O)C(=O)N[C@H](C(=O)N[C@@H](CC(C)C)C(=O)N[C@@H](C)C(=O)N[C@@H](CCC(N)=O)C(=O)N[C@H](C(N)=O)C(C)C)[C@@H](C)CC)[C@@H](C)O)[C@@H](C)CC)[C@@H](C)CC)C(C)C)C(C)C [compound 118] (H-[NMeI]VLSLD[dV]PIKLK([AEEA-AEEA-γGlu-C18 diacid])KILLEQEKQKKQREQAETN[Aib]QILAQV-NH2)
 |  |  | 0/nd ^ % | 4430 | 291 | 95 | 106 | 77 |  |  | CC[C@H](C)[C@H](NC(C)=O)C(=O)N[C@H](C(=O)N[C@@H](CC(C)C)C(=O)N[C@@H](CO)C(=O)N[C@@H](CC(C)C)C(=O)N[C@@H](CC(=O)O)C(=O)N[C@@H](C(=O)N1CCC[C@H]1C(=O)N[C@H](C(=O)N[C@@H](CCCCN)C(=O)N[C@@](C)(CC(C)C)C(=O)N[C@@H](CCCCNC(=O)COCCOCCNC(=O)COCCOCCNC(=O)CC[C@H](NC(=O)CCCCCCCCCCCCCCCCC(=O)O)C(=O)O)C(=O)N[C@@H](CCCCN)C(=O)N[C@H](C(=O)N[C@@H](CC(C)C)C(=O)N[C@@H](CC(C)C)C(=O)N[C@@H](CCC(=O)O)C(=O)N[C@@H](CCC(N)=O)C(=O)N[C@@H](CCC(=O)O)C(=O)N[C@@H](CCCCN)C(=O)N[C@@H](CCC(N)=O)C(=O)N[C@@H](CCCCN)C(=O)N[C@@H](CCCCN)C(=O)N[C@@H](CCC(N)=O)C(=O)N[C@@H](CCCNC(=N)N)C(=O)N[C@@H](CCC(=O)O)C(=O)N[C@@H](CCC(N)=O)C(=O)N[C@@H](C)C(=O)N[C@@H](CCC(=O)O)C(=O)N[C@H](C(=O)N[C@@H](CC(N)=O)C(=O)NC(C)(C)C(=O)N[C@@H](CCC(N)=O)C(=O)N[C@H](C(=O)N[C@@H](CC(C)C)C(=O)N[C@@H](C)C(=O)N[C@@H](CCC(N)=O)C(=O)N[C@H](C(N)=O)C(C)C)[C@@H](C)CC)[C@@H](C)O)[C@@H](C)CC)[C@@H](C)CC)C(C)C)C(C)C [compound 110] (Ac-IVLSLD[dV]PIK[αMeL]K([AEEA-AEEA-γGlu-C18 diacid])KILLEQEKQKKQREQAETN[Aib]QILAQV-NH2)
 |  |  | 0.0/Not Tested % | 9410 | 325 |  |  | 84 |  |  | CC[C@H](C)[C@H](NC)C(=O)N[C@H](C(=O)N[C@@H](CC(C)C)C(=O)N[C@@H](CO)C(=O)N[C@@H](CC(C)C)C(=O)N[C@@H](CC(=O)O)C(=O)N[C@@H](C(=O)N1CCC[C@H]1C(=O)N[C@H](C(=O)N[C@@H](CCCCN)C(=O)N[C@@H](CC(C)C)C(=O)N[C@@H](CCCCNC(=O)CC[C@H](NC(=O)CCCCCCCCCCCCCCCCCCC(=O)O)C(=O)O)C(=O)N[C@@H](CCCCN)C(=O)N[C@H](C(=O)N[C@@H](CC(C)C)C(=O)N[C@@H](CC(C)C)C(=O)N[C@@H](CCC(=O)O)C(=O)N[C@@H](CCC(N)=O)C(=O)N[C@@H](CCC(=O)O)C(=O)N[C@@H](CCCCN)C(=O)N[C@@H](CCC(N)=O)C(=O)N[C@@H](CCCCN)C(=O)NC(C)(C)C(=O)N[C@@H](CCC(N)=O)C(=O)N[C@@H](CCCNC(=N)N)C(=O)N[C@@H](CCC(=O)O)C(=O)N[C@@H](CCC(N)=O)C(=O)N[C@@H](C)C(=O)N[C@@H](CCC(=O)O)C(=O)N[C@H](C(=O)N[C@@H](CC(N)=O)C(=O)NC(C)(C)C(=O)N[C@@H](CCC(N)=O)C(=O)N[C@H](C(=O)N[C@@H](CC(C)C)C(=O)N[C@@H](C)C(=O)N[C@@H](CCC(N)=O)C(=O)N[C@H](C(N)=O)C(C)C)[C@@H](C)CC)[C@@H](C)O)[C@@H](C)CC)[C@@H](C)CC)C(C)C)C(C)C [compound 215] (H-[NMeI]VLSLD[dV]PIKLK([γGlu-C20 diacid])KILLEQEKQK[Aib]QREQAETN[Aib]QILAQV-NH2)
 |  |  | 0.0/Not Tested % | 4120 | 115 | 109 |  | 71 | 102 |  | CC[C@H](C)[C@H](NC)C(=O)N[C@H](C(=O)N[C@@H](CC(C)C)C(=O)N[C@@H](CO)C(=O)N[C@@H](CC(C)C)C(=O)N[C@@H](CC(=O)O)C(=O)N[C@@H](C(=O)N1CCC[C@H]1C(=O)N[C@H](C(=O)N[C@@H](CCCCN)C(=O)N[C@@H](CC(C)C)C(=O)N[C@@H](CCCCNC(=O)CC[C@H](NC(=O)CCCCCCCCCCCCCCCCCCC(=O)O)C(=O)O)C(=O)N[C@@H](CCCCN)C(=O)N[C@H](C(=O)N[C@@H](CC(C)C)C(=O)N[C@@H](CC(C)C)C(=O)N[C@@H](CCC(=O)O)C(=O)N[C@@H](CCC(N)=O)C(=O)N[C@@H](CCC(=O)O)C(=O)N[C@@H](CCCCN)C(=O)N[C@@H](CCC(N)=O)C(=O)N[C@@H](CCCCN)C(=O)N[C@@H](CCC(=O)O)C(=O)N[C@@H](CCC(N)=O)C(=O)N[C@@H](CCCNC(=N)N)C(=O)N[C@@H](CCC(=O)O)C(=O)N[C@@H](CCC(N)=O)C(=O)N[C@@H](C)C(=O)N[C@@H](CCC(=O)O)C(=O)N[C@H](C(=O)N[C@@H](CC(N)=O)C(=O)NC(C)(C)C(=O)N[C@@H](CCC(N)=O)C(=O)N[C@H](C(=O)N[C@@H](CC(C)C)C(=O)N[C@@H](C)C(=O)N[C@@H](CCC(N)=O)C(=O)N[C@H](C(N)=O)C(C)C)[C@@H](C)CC)[C@@H](C)O)[C@@H](C)CC)[C@@H](C)CC)C(C)C)C(C)C [compound 218] (H-[NMeI]VLSLD[dV]PIKLK([γGlu-C20 diacid])KILLEQEKQKEQREQAETN[Aib]QILAQV-NH2)
 |  | 0.0/0.0 ^ % | 0.0/0.0 ^ % | 5770 | 197 |  |  | 73 |  | 10.22 | CC[C@H](C)[C@H](NC(C)=O)C(=O)N[C@H](C(=O)N[C@@H](CC(C)C)C(=O)N[C@@H](CO)C(=O)N[C@@H](CC(C)C)C(=O)N[C@@H](CC(=O)O)C(=O)N[C@@H](C(=O)N1CCC[C@H]1C(=O)N[C@H](C(=O)N[C@@H](CCCCN)C(=O)N[C@@H](CC(C)C)C(=O)N[C@@H](CCCCNC(=O)CC[C@H](NC(=O)CCCCCCCCCCCCCCCCCCC(=O)O)C(=O)O)C(=O)N[C@@H](CCCCN)C(=O)N[C@H](C(=O)N[C@@H](CC(C)C)C(=O)N[C@@H](CC(C)C)C(=O)N[C@@H](CCC(=O)O)C(=O)N[C@@H](CCC(N)=O)C(=O)N[C@@H](CCC(=O)O)C(=O)N[C@@H](CCCCN)C(=O)N[C@@H](CCC(N)=O)C(=O)N[C@@H](CCCCN)C(=O)N[C@@H](CCCCN)C(=O)N[C@@H](CCC(N)=O)C(=O)N[C@@H](CCCNC(=N)N)C(=O)N[C@@H](CCC(=O)O)C(=O)N[C@@H](CCC(N)=O)C(=O)N[C@@H](C)C(=O)N[C@@H](CCC(=O)O)C(=O)N[C@H](C(=O)N[C@@H](CC(N)=O)C(=O)NC(C)(C)C(=O)N[C@@H](CCC(N)=O)C(=O)N[C@H](C(=O)N[C@@H](CC(C)C)C(=O)N[C@@H](C)C(=O)N[C@@H](CCC(N)=O)C(=O)N[C@H](C(N)=O)C(C)C)[C@@H](C)CC)[C@@H](C)O)[C@@H](C)CC)[C@@H](C)CC)C(C)C)C(C)C [compound 206] (Ac-IVLSLD[dV]PIKLK([γGlu-C20 diacid])KILLEQEKQKKQREQAETN[Aib]QILAQV-NH2)
